Measurements: patent US9347934B2, “Assays for identifying compounds that modulate bitter taste” (CHROMOCELL CORPORATION, priority 2011, dated 2016)

Assays:
TAS2R5 = target: T1, TAS2R5 (Homo sapiens, UniProt Q9NYW4); assay: Calcium fluorescence functional assay, TAS2R5 cell line; assay type: cell-based; details: 20 mM tastant; cell line expressing human TAS2R5 and mouse Gα15
T1 construct: expressed in transfected cells
T1 sequence (Q9NYW4 1-299): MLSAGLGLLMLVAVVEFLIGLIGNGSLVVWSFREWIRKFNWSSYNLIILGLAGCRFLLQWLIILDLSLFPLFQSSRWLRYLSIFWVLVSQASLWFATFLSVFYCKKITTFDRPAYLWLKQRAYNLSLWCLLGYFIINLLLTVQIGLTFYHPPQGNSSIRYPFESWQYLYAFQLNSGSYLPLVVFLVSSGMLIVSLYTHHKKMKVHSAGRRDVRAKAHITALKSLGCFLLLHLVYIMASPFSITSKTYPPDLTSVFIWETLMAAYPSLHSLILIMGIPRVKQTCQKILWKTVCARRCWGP
Procedure: (§1) Accordingly, each cell line of the panel expressed a human bitter taste receptor and mouse Gα15 signaling protein.
(§2) Probenecid was not included in the load solution.
(§3) After dye loading, cell plates were placed in a fluorescent plate reader (e.g., FDSS6000 (Hamamatsu, Japan)) and receptor stimulation was measured by adding 50 ul of 3× concentrated ligand/agonist stock. Fluorescence was monitored continuously for 10 s before agonist addition and for 100-250 s after stimulation with agonist.
(§4) Receptor Activation is defined as follows: % Activation=[((Maximum signal fluorescence−Minimum signal fluorescence)−(Maximum control fluorescence−Minimum control fluorescence))/(Maximum buffer fluorescence−Minimum buffer fluorescence)]*100 Functional Response=[(Maximum signal fluorescence−Minimum signal fluorescence)−(Maximum control fluorescence−Minimum control fluorescence)] • Signal Fluorescence: refers to the change in fluorescence seen with addition of ligand • Control fluorescence: refers to the change in fluorescence seen with addition of buffer (negative control) • Calcium signals from ligand and control were normalized to the basal fluorescence of the cells prior to the stimulation.
(§5) A concentration analysis was performed and EC50 values were calculated by nonlinear regression using the formula: Y=Bottom+(Top-Bottom)/(1+10^((Log EC50-X)*Hill Slope)), X=log of dose or concentration, Y=Response (increasing as X increases), Top=maximum signal, Bottom=minimum signal.

TAS2R8 = target: T2, TAS2R8 (Homo sapiens, UniProt Q9NYW2); assay: Calcium fluorescence functional assay, TAS2R8 cell line; assay type: cell-based; details: 20 mM tastant; cell line expressing human TAS2R8 and mouse Gα15
T2 construct: expressed in transfected cells
T2 sequence (Q9NYW2 1-309): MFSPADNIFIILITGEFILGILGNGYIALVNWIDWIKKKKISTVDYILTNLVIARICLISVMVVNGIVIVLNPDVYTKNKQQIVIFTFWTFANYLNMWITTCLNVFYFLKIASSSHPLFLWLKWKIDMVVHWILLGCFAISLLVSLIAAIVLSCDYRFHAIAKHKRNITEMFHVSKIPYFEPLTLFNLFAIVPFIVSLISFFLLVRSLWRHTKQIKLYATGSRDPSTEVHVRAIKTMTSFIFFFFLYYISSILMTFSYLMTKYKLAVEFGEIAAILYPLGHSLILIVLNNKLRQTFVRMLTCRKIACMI
Procedure: as §1, §2, §3, §4, §5

TAS2R13 = target: T3, TAS2R13 (Homo sapiens, UniProt Q9NYV9); assay: Calcium fluorescence functional assay, TAS2R13 cell line; assay type: cell-based; details: for TAS2R13 bitter taste receptor activity (changes in intracellular calcium): 20 mM tastant, cell line expressing human TAS2R13 and mouse Gα15
T3 construct: expressed in transfected cells
T3 sequence (Q9NYV9 1-303): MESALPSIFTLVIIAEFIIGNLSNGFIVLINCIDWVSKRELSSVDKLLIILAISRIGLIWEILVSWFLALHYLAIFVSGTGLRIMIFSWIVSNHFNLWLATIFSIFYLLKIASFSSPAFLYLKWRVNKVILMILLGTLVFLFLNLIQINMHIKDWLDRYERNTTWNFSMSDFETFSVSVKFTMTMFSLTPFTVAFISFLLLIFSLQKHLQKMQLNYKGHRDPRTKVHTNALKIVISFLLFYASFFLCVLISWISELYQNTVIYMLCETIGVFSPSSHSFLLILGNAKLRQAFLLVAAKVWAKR
Procedure: as §1, §2, §3, §4, §5

TAS2R14 = target: T4, TAS2R14 (Homo sapiens, UniProt Q9NYV8); assay: Calcium fluorescence functional assay, TAS2R14 cell line; assay type: cell-based; details: for TAS2R14 bitter taste receptor activity (changes in intracellular calcium): 20 mM tastant, cell line expressing human TAS2R14 and mouse Gα15
T4 construct: expressed in transfected cells
T4 sequence (Q9NYV8 1-317): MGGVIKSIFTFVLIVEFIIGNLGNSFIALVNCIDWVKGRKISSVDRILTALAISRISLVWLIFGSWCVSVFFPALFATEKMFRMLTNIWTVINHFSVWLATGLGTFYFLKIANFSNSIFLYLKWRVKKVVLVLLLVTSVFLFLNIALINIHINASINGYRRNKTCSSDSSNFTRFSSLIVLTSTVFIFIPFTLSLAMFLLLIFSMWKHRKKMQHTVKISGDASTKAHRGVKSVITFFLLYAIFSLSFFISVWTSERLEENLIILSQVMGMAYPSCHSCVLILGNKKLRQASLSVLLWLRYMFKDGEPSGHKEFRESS
Procedure: as §1, §2, §3, §4, §5

TAS2R38 = target: T5, TAS2R38 (Homo sapiens, UniProt P59533); assay: Calcium fluorescence functional assay, TAS2R38 cell line; assay type: cell-based; details: 20 mM tastant; cell line expressing human TAS2R38 and mouse Gα15
T5 construct: expressed in transfected cells
T5 sequence (P59533 1-333): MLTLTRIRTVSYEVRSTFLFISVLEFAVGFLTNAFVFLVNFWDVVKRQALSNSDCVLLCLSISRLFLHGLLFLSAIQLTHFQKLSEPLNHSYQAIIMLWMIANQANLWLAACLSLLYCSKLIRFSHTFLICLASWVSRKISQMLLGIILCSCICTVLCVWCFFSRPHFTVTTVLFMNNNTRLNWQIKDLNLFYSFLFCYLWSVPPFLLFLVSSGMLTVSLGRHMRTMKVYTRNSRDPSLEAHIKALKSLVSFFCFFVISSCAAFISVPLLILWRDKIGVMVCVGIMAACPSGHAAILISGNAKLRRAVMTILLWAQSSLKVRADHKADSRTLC
Procedure: as §1, §2, §3, §4, §5

TAS2R48 = target: T6, TAS2R48 (Homo sapiens, UniProt P59542); assay: Calcium fluorescence functional assay, TAS2R48 cell line; assay type: cell-based; details: 20 mM tastant; cell line expressing human TAS2R48 and mouse Gα15
T6 construct: expressed in transfected cells
T6 sequence (P59542 1-299): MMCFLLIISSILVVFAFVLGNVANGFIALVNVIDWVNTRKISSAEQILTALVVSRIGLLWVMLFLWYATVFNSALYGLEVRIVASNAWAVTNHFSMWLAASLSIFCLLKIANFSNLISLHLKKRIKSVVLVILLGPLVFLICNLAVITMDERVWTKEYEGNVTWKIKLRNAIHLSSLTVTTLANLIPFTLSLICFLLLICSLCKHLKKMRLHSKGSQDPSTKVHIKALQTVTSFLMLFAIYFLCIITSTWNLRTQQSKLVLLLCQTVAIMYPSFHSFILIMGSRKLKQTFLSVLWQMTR
Procedure: as §1, §2, §3, §4, §5

[1] = test system: panel of twenty-five bitter taste receptor expressing cell lines; assay: Panel of twenty-five bitter receptor expressing cell lines exposed to 20 mM tastant; assay type: cell-based, human; details: the remaining nineteen (KCl) or eighteen receptors
Procedure: as §1, §2, §3, §4

Row | SMILES | TAS2R5 bitter taste receptor activity (changes in intracellular calcium) (TAS2R5) | TAS2R8 bitter taste receptor activity (changes in intracellular calcium) (TAS2R8) | TAS2R13 bitter taste receptor activity (changes in intracellular calcium) (TAS2R13) | TAS2R14 bitter taste receptor activity (changes in intracellular calcium) (TAS2R14) | TAS2R38 bitter taste receptor activity (changes in intracellular calcium) (TAS2R38) | TAS2R48 bitter taste receptor activity (changes in intracellular calcium) (TAS2R48) | functional response of the remaining (non-responding) receptors of the panel, threshold [1] [%] | EC50 (TAS2R13; increasing concentrations of KCl, TAS2R13 cell line (FIG. 3), read-out: EC50 value, activation of TAS2R13) [mM] | EC50 (TAS2R14; increasing concentrations of KCl, TAS2R14 cell line (FIG. 3), read-out: EC50 value, activation of TAS2R14) [mM]
1 | CC(O)C(=O)[O-].[K+] (centres unmarked) [Potassium lactate, potassium lactate] | did not induce | did not induce | induced | induced | did not induce | did not induce | ≤ 40 |  | 
2 | [Cl-].[K+] [KCl, potassium chloride] | did not induce | did not induce | induced | induced | did not induce | did not induce | ≤ 40 | 5 to 15 | 5 to 15
3 | CC1=CC(=O)NS(=O)(=O)O1 [Acesulfame K] | did not induce | did not induce | induced | induced | did not induce | did not induce | ≤ 40 |  | 
